Results on 35 molecules are retold here after patent US10336762B2 (priority 2017, dated 2019).

The test system of one assay is TNFα. The assay is described as follows: cells. To be noted: LPS-stimulated human monocytes, read-out: EC50 TNF. In kind it is cell-based, human.
Another assay concerns the target IRAK4 enzyme (Homo sapiens (Human), UniProt Q9NWZ3). The assay is described as follows: biochemical. To be noted: IRAK4 enzyme, 500 μM ATP. The assay is classed as biochemical.
Where [1] appears, read: Homo sapiens, Monocyte, TNFα content.

Like-named read-outs stand apart in the source and are kept apart here.

Sequence of IRAK4 enzyme (Q9NWZ3 whole entry): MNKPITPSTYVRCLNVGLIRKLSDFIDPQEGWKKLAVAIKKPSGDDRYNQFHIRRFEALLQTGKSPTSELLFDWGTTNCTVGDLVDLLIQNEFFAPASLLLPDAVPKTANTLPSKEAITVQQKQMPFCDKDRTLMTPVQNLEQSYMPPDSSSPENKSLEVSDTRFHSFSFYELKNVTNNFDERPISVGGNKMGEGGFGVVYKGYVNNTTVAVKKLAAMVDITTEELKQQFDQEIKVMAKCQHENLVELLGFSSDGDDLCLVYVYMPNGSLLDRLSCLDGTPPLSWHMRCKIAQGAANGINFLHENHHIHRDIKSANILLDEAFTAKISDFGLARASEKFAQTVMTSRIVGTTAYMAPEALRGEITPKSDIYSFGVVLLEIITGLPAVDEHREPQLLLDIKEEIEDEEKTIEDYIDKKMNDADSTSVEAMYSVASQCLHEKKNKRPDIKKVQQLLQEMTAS

What is called EC50 is the concentration at which the effect is half-maximal. Take “6-(3-cyanopyrrolo[1,2- b]pyridazin-7-yl)-N-((R)- 2-fluoro-3-hydroxy-3- methylbutyl)-4-(((1s,3S)-3- hydroxyadamantan-1- yl)amino)nicotinamide [Example 525]”: in the assay on TNFα (TNFα content), the EC50 was found to be 0.011 µM.
Turning to “6-(3-cyanopyrrolo[1,2-b]pyridazin-7-yl)-N-(2-(hydroxymethyl)cyclopropyl)-4-(isopropylamino)nicotinamide [Example 19]”, in the assay with TNFα (TNFα content), the EC50 amounted to 0.926 µM.
In general, IC50 refers to the concentration that gives 50% inhibition. Low values mean inhibition by little substance, high ones a need for much substance. For `CC(C)Nc1cc(-c2ccc3cc(C#N)cnn23)ncc1C(=O)NC1CC1CO` (single isomer, unassigned) [Example 18, 6-(3-cyanopyrrolo[1,2-b]pyridazin-7-yl)-N-(2-(hydroxymethyl)cyclopropyl)-4-(isopropylamino)nicotinamide], the EC50 with TNFα (setting [1]) turned out to be 0.757 µM. Besides, it took 0.009 µM to reach half-maximal inhibition against IRAK4 enzyme (TR-FRET) (IC50).
Consider `CC(C)(O)[C@H](F)CNC(=O)c1cnc(-c2ccc3cc(C#N)cnn23)cc1NC1C2CNCC1C2` (single isomer, unassigned) [Example 25], for which, in the assay on TNFα (setting [1]), the EC50 worked out at 0.116 µM. Besides, the IC50 at IRAK4 enzyme (TR-FRET) is 0.002 µM.
As to `CC(C)(O)[C@H](F)CNC(=O)c1cnc(-c2ccc3cc(C#N)cnn23)cc1NC1C2CNCC1C2` (single isomer, unassigned) [Example 26], the EC50 with TNFα (TNFα content) stood at 0.182 µM. The IC50 at IRAK4 enzyme (TR-FRET) is 0.003 µM.
For `CC(C)(O)[C@H](F)CNC(=O)c1cnc(-c2ccc3cc(C#N)cnn23)cc1NC1C2CCC1CNC2` (single isomer, unassigned) [Example 27], in the assay on TNFα (setting [1]), the EC50 is 0.175 µM. The molecule also registered an IC50 at IRAK4 enzyme (TR-FRET) of 0.002 µM.
On to `CC(C)(O)[C@H](F)CNC(=O)c1cnc(-c2ccc3cc(C#N)cnn23)cc1NC1C2CCC1CNC2` (single isomer, unassigned) [Example 28], for which the EC50 in the assay with TNFα (TNFα content) amounted to 0.109 µM. This molecule also gave an IC50 on IRAK4 enzyme (TR-FRET) of less than 0.001 µM.
As to `CC(C)(O)[C@H](F)CNC(=O)c1cnc(-c2ccc3cc(C#N)cnn23)cc1NC1CC1CO` (single isomer, unassigned) [Example 302], in the assay with TNFα (setting [1]), the EC50 came out at 0.061 µM. Besides, the IC50 against IRAK4 enzyme (TR-FRET) is 0.001 µM.
Regarding `CC(C)(O)[C@H](F)CNC(=O)c1cnc(-c2ccc3cc(C#N)cnn23)cc1NC1CCCC(S(C)(=O)=O)C1` (single isomer, unassigned) [Example 515], in the assay with TNFα (setting [1]), the EC50 was determined as 0.526 µM. The molecule also showed an IC50 against IRAK4 enzyme (TR-FRET (HTRF)) of 0.005 µM.
In the case of `CC(C)(O)[C@H](F)CNC(=O)c1cnc(-c2ccc3cc(C#N)cnn23)cc1NC1CCCC(S(C)(=O)=O)C1` (single isomer, unassigned) [Example 516], in the assay with TNFα (TNFα content), the EC50 was 0.595 µM. At IRAK4 enzyme (TR-FRET (HTRF)), this molecule returned an IC50 of 0.002 µM.
Consider `CC(C)(O)[C@H](F)CNC(=O)c1cnc(-c2ccc3cc(C#N)cnn23)cc1NC1CCCC(S(C)(=O)=O)C1` (single isomer, unassigned) [Example 517], for which the EC50 in the assay with TNFα (TNFα content) is 0.484 µM. For the same molecule, on IRAK4 enzyme (TR-FRET (HTRF)), the IC50 was less than 0.001 µM.
Turning to `CC1(O)CCCC(Nc2cc(-c3ccc4cc(C#N)cnn34)ncc2C(=O)NC[C@@H](F)C(C)(C)O)C1` (single isomer, unassigned) [Example 528], the EC50 in the assay with TNFα (setting [1]) stood at 0.065 µM. Further, at IRAK4 enzyme (TR-FRET (HTRF)), the IC50 was found to be 0.001 µM.
For the molecule `CC1(O)CCCC(Nc2cc(-c3ccc4cc(C#N)cnn34)ncc2C(=O)NC[C@@H](F)C(C)(C)O)C1` (single isomer, unassigned) [Example 529], in the assay on TNFα (TNFα content), the EC50 was found to be 0.062 µM. At IRAK4 enzyme (TR-FRET (HTRF)), this molecule showed a half-inhibitory concentration (IC50) of 0.001 µM.
In the same order, the values of `CC(C)(O)[C@H](F)CNC(=O)c1cnc(-c2ccc3cc(C#N)cnn23)cc1NC1CC(Cc2cnco2)C1` (single isomer, unassigned) [Example 638] are 0.026 µM and less than 0.001 µM.
Consider `CC(C)(O)[C@H](F)CNC(=O)c1cnc(-c2ccc3cc(C#N)cnn23)cc1NC1CC(Cc2cnco2)C1` (single isomer, unassigned) [Example 640], for which the EC50 in the assay on TNFα (TNFα content) is 0.117 µM. Also, the midpoint of inhibition at IRAK4 enzyme (TR-FRET (HTRF)), the IC50, lay at 0.001 µM.
In the case of `Cc1ncc(C2CCC(Nc3cc(-c4ccc5cc(C#N)cnn45)ncc3C(=O)NC[C@@H](F)C(C)(C)O)CC2)o1` (single isomer, unassigned) [Example 645], the EC50 in the assay on TNFα (TNFα content) was 0.301 µM. In addition, the IC50 against IRAK4 enzyme (TR-FRET (HTRF)) was determined as 0.01 µM.
`Cc1ncc(C2CCC(Nc3cc(-c4ccc5cc(C#N)cnn45)ncc3C(=O)NC[C@@H](F)C(C)(C)O)CC2)o1` (single isomer, unassigned) [Example 646]: the EC50 in the assay on TNFα (TNFα content) was found to be 0.015 µM. This molecule came in with a concentration for half-maximal inhibition (IC50) at IRAK4 enzyme (TR-FRET (HTRF)) of less than 0.001 µM.
In the case of `CC(C)(O)[C@H](F)CNC(=O)c1cnc(-c2ccc3cc(C#N)cnn23)cc1NC1Cc2ccncc2C1` (single isomer, unassigned) [Example 676], in the assay with TNFα (setting [1]), the EC50 turned out to be 0.081 µM. Further, half-maximal inhibition on IRAK4 enzyme (TR-FRET (HTRF)) (IC50) was put at 0.001 µM.
For the molecule `CC(C)(O)[C@H](F)CNC(=O)c1cnc(-c2ccc3cc(C#N)cnn23)cc1NC1Cc2ccncc2C1` (single isomer, unassigned) [Example 677], in the assay on TNFα (TNFα content), the EC50 amounted to 0.054 µM. This molecule registered an IC50 against IRAK4 enzyme (TR-FRET (HTRF)) of less than 0.001 µM.
As for `CC(C)Nc1cc(-c2ccc3cc(C#N)cnn23)ncc1C(=O)NC1(C)COC1` [Example 35, 6-(3-cyanopyrrolo[1,2-b]pyridazin-7-yl)-4-(isopropyl-amino)-N-(3-methyloxetan-3-yl) nicotinamide], on IRAK4 enzyme (TR-FRET), the IC50 was found to be 0.003 µM.
As for `CC(C)(O)[C@H](F)CNC(=O)c1cnc(-c2ccc3cc(C#N)cnn23)cc1NC1(CO)CC1` [Example 51, (R)-6-(3-cyanopyrrolo[1,2-b]pyridazin-7-yl)-N-(2-fluoro-3-hydroxy-3-methylbutyl)-4-((1-(hydroxymethyl)cyclopropyl)amino)nicotinamide], the EC50 in the assay on TNFα (setting [1]) was 0.159 µM.
With `CC(C)Nc1cc(-c2ccc3cc(C#N)cnn23)ncc1C(=O)NCCC1COC1` [Example 52, 6-(3-cyanopyrrolo[1,2-b]pyridazin-7-yl)-4-(isopropylamino)-N-(2-(oxetan-3-yl)ethyl) nicotinamide], the EC50 in the assay on TNFα (setting [1]) stood at 0.086 µM.
In the case of `CC(C)(O)[C@H](F)CNC(=O)c1cnc(-c2ccc3cc(C#N)cnn23)cc1NC1CC1` [Example 55, (R)-6-(3-cyanopyrrolo[1,2-b]pyridazin-7-yl)-4-(cyclopropylamino)-N-(2-fluoro-3-hydroxy-3-methylbutyl) nicotinamide], the EC50 in the assay on TNFα (setting [1]) came out at 0.028 µM.
Regarding `CC(C)(O)[C@H](F)CNC(=O)c1cnc(-c2ccc3cc(C#N)cnn23)cc1NCCS(C)(=O)=O` [Example 102, (R)-6-(3-cyanopyrrolo[1,2-b]pyridazin-7-yl)-N-(2-fluoro-3-hydroxy-3-methylbutyl)-4-((2-(methylsulfonyl)ethyl)amino) nicotinamide], the EC50 in the assay on TNFα (setting [1]) worked out at 0.313 µM.
`CC(C)(O)[C@H](F)CNC(=O)c1cnc(-c2ccc3cc(C#N)cnn23)cc1Nc1nc2ccccc2s1` [Example 377]: the EC50 in the assay with TNFα (setting [1]) was found to be 0.426 µM.
As to `CNc1cc(-c2ccc3cc(C#N)cnn23)ncc1C(=O)NC[C@@H](F)C(C)(C)O` [Example 379, (R)-6-(3-cyanopyrrolo[1,2-b]pyridazin-7-yl)-N-(2-fluoro-3-hydroxy-3-methylbutyl)-4-(methyl-amino)nicotinamide], in the assay on TNFα (setting [1]), the EC50 stood at 0.057 µM.
For `N#Cc1cnn2c(-c3cc(N[C@H]4CCC[C@@H](O)C4)c(C(=O)NC4CCC(F)(F)CC4)cn3)ccc2c1` [Example 431, 6-(3-cyanopyrrolo[1,2-b]pyridazin-7-yl)-N-(4,4-difluorocyclohexyl)-4-(((1S,3R)-3-hydroxy-cyclohexyl)amino) nicotinamide], the EC50 with TNFα (setting [1]) stood at 0.441 µM.
The same measure, in the same setting: for `Cn1cc(Nc2cc(-c3ccc4cc(C#N)cnn34)ncc2C(=O)NC[C@@H](F)C(C)(C)O)ccc1=O` [Example 441, (R)-6-(3-cyanopyrrolo[1,2-b]pyridazin-7-yl)-N-(2-fluoro-3-hydroxy-3-methylbutyl)-4-((1-methyl-6-oxo-1,6-dihydropyridin-3-yl)amino)nicotinamide] the value was 1.3 µM; for `CC(=O)NCC(F)(F)CNC(=O)c1cnc(-c2ccc3cc(C#N)cnn23)cc1NC(C)C` [Example 551, N-(3-acetamido-2,2-difluoropropyl)-6-(3-cyanopyrrolo[1,2-b]pyridazin-7-yl)-4-(isopropylamino)nicotinamide], 0.809 µM.
Still for that read-out and setting: for `CC(C)(O)[C@H](F)CNC(=O)c1cnc(-c2ccc3cc(C#N)cnn23)cc1Nc1cccc(OC(F)(F)F)c1` [Example 607, (R)-6-(3-cyanopyrrolo[1,2-b]pyridazin-7-yl)-N-(2-fluoro-3-hydroxy-3-methylbu1yl)-4-((3-(trifluoromethoxy)phenyl)amino)nicotinamide] the value was 1.44 µM.
Same read-out and setting: for `CNC(=O)OC[C@@H]1C[C@H]1Nc1cc(-c2ccc3cc(C#N)cnn23)ncc1C(=O)NC[C@@H](F)C(C)(C)O` [Example 747] the value was 0.169 µM.
In turn, `CC(C)(O)[C@H](F)CNC(=O)c1cnc(-c2ccc3cc(C#N)cnn23)cc1Nc1ccc(-n2nccn2)cc1` [Example 774, (R)-4-((4-(2H-1,2,3-triazol-2-yl)phenyl)amino)-6-(3-cyanopyrrolo[1,2-b]pyridazin-7-yl)-N-(2-fluoro-3-hydroxy-3-methylbutyl)nicotinamide] showed an IC50 on IRAK4 enzyme (TR-FRET (HTRF)) of 0.002 µM.
`CC(C)(O)[C@H](F)CNC(=O)c1cnc(-c2ccc3cc(C#N)cnn23)cc1Nc1cncc(OCC(F)F)c1` [Example 852, (R)-6-(3-cyanopyrrolo[1,2-b]pyridazin-7-yl)-4-((5-(2,2-difluoroethoxy)pyridin-3-yl)amino)-N-(2-fluoro-3-hydroxy-3-methylbutyl) nicotinamide]: the EC50 in the assay on TNFα (Homo sapiens, Monocyte, TNFα by TR-FRET) worked out at 0.003 µM.
Turning to `CC(C)(O)[C@H](F)CNC(=O)c1cnc(-c2ccc3cc(C#N)cnn23)cc1Nc1cnc(-c2cn[nH]c2)nc1` [Example 969, (R)-4-((2-(1H-pyrazol-4-yl)pyrimidin-5-yl)amino)-6-(3-cyanopyrrolo[1,2-b]pyridazin-7-yl)-N-(2-fluoro-3-hydroxy-3-methyl-butyl)nicotinamide], the IC50 at IRAK4 enzyme (TR-FRET) is less than 0.001 µM.
In the case of “(R)-4-((1H-benzo[d][1,2,3] triazol-5-yl)amino)-6-(3- cyanopyrrolo[1,2-b]pyridazin- 7-yl)-N-(2-fluoro-3- hydroxy-3-methylbutyl) nicotinamide [Example 569]”, in the assay with TNFα (TNFα content), the EC50 was more than 10 µM.
